pEC50: −log10 of the molar value. Where “and” joins values, the source holds several entries; their conditions need not be identical. Equal entries are not always repeated.

This test addresses T1, human FXR (NR1H4) (Homo sapiens, UniProt Q96RI1).
T1 sequence (Q96RI1 1-486): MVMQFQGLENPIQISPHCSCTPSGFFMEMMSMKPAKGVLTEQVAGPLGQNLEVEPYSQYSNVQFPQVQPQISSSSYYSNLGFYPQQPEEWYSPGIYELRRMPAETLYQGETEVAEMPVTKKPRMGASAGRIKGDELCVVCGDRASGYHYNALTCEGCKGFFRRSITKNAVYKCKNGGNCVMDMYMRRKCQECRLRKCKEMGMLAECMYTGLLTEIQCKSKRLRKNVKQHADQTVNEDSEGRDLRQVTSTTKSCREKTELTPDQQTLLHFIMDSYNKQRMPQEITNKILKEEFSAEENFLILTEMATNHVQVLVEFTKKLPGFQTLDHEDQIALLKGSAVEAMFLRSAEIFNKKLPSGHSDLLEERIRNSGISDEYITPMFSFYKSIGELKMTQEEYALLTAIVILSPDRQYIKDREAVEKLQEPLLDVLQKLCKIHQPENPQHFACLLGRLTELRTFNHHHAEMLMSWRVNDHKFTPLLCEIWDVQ
Briefly: Human FXR (NR1H4) Assay: Gal4 promoter driven luciferase reporter transactivation in CHO cells (Indigo Bioscience kit IB00601). Format: cell-based. As to conditions: for Emax: CHO, efficacy normalized to CDCA set as 100%, read-out: Efficacy (%); for pEC50: potency range, Human FXR (NR1H4) reporter assay in CHO cells, read-out: EC50. Summed up: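 CHO reporter cells expressing human NR1H4 with luciferase driven by an FXR-responsive promoter (Gal4 system), run per manufacturer's kit. Compounds applied to plated cells, then incubated a further 22 hours at 37° C. Luciferase luminescence read after detection reagent as a surrogate of FXR activation, giving potency and efficacy.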
(In a reporter assay the amount or activity of a reporter protein is the signal.)

The term pEC50 denotes the negative decadic logarithm of the EC50, by convention in mol/L. In the case of `COC(=O)c1ccc(OC)c(NC(=O)N2C3CCC2CC(OCc2c(-c4c(Cl)cccc4Cl)noc2C2CC2)C3)c1` (centres unmarked) [Example 724], the Emax is 137% and the pEC50 was 7.00 to 8.00.

As for `COc1ccc(C(=O)O)cc1NC(=O)N1C2CCC1CC(OCc1c(-c3c(Cl)cccc3Cl)noc1C1CC1)C2` (centres unmarked) [Example 725], the Emax turned out to be 140% and the pEC50 is 6.00 to 7.00.

With `COC(=O)c1cc(NC(=O)N2C3CCC2CC(OCc2c(-c4c(Cl)cccc4Cl)noc2C2CC2)C3)cc(-c2cccnc2)c1` (centres unmarked) [Example 726], the Emax is 81% and the pEC50 was over 8.00.

Take `O=C(O)c1cc(NC(=O)N2C3CCC2CC(OCc2c(-c4c(Cl)cccc4Cl)noc2C2CC2)C3)cc(-c2cccnc2)c1` (centres unmarked) [Example 727]: the pEC50 is 7.00 to 8.00 and > 8.00.

Consider `O=C(Nc1ccc(-c2ccccc2)cc1)N1C2CCC1CC(OCc1c(-c3c(Cl)cccc3Cl)noc1C1CC1)C2` (centres unmarked) [Example 728], for which the Emax is 141% and the negative-log EC50 (pEC50) was 7.00 to 8.00.

As to `O=C(Nc1cccc(-c2ccccc2)c1)N1C2CCC1CC(OCc1c(-c3c(Cl)cccc3Cl)noc1C1CC1)C2` (centres unmarked) [Example 729], the Emax is 148% and the pEC50 was over 8.00.

For the compound `O=C(NCc1ccccc1)N1C2CCC1CC(OCc1c(-c3c(Cl)cccc3Cl)noc1C1CC1)C2` (centres unmarked) [Example 730], the Emax is 252% and the pEC50 is over 8.00.

As for `COc1ccc(CNC(=O)N2C3CCC2CC(OCc2c(-c4c(Cl)cccc4Cl)noc2C2CC2)C3)cc1` (centres unmarked) [Example 731], the Emax stood at 229% and the pEC50 is over 8.00.

For the compound `O=C(NCc1ccc(F)cc1)N1C2CCC1CC(OCc1c(-c3c(Cl)cccc3Cl)noc1C1CC1)C2` (centres unmarked) [Example 732], the Emax is 180% and the negative logarithm of the EC50 (pEC50) was over 8.00.

Take `O=C(NCc1ccc(F)c(F)c1)N1C2CCC1CC(OCc1c(-c3c(Cl)cccc3Cl)noc1C1CC1)C2` (centres unmarked) [Example 733]: the Emax was determined as 175% and the pEC50 is over 8.00.

Regarding `O=C(NCc1cccc(C(F)(F)F)c1)N1C2CCC1CC(OCc1c(-c3c(Cl)cccc3Cl)noc1C1CC1)C2` (centres unmarked) [Example 734], the Emax is 172% and the pEC50 is 7.00 to 8.00.

On to `O=C(NCc1cccc(-c2ccccc2)c1)N1C2CCC1CC(OCc1c(-c3c(Cl)cccc3Cl)noc1C1CC1)C2` (centres unmarked) [Example 735], for which the Emax came to 136% and the pEC50 is 6.00 to 7.00.

On to `O=C(Nc1cccc(-c2ccccn2)c1)N1C2CCC1CC(OCc1c(-c3c(Cl)cccc3Cl)noc1C1CC1)C2` (centres unmarked) [Example 736], for which the Emax worked out at 136% and the pEC50 is over 8.00.

Take `O=C(Nc1cccc(-c2nccs2)c1)N1C2CCC1CC(OCc1c(-c3c(Cl)cccc3Cl)noc1C1CC1)C2` (centres unmarked) [Example 737]: the Emax was found to be 179% and the pEC50 was over 8.00.

As to `O=C(NCc1ccc(-c2ccccc2)cc1)N1C2CCC1CC(OCc1c(-c3c(Cl)cccc3Cl)noc1C1CC1)C2` (centres unmarked) [Example 738], the Emax was 139% and the pEC50 was 6.00 to 7.00.

Regarding `O=C(NCc1cncc(-c2ccccc2)c1)N1C2CCC1CC(OCc1c(-c3c(Cl)cccc3Cl)noc1C1CC1)C2` (centres unmarked) [Example 739], the Emax was found to be 108% and the pEC50 is 7.00 to 8.00.

Regarding `O=C(NCc1ccccc1-c1ccccc1)N1C2CCC1CC(OCc1c(-c3c(Cl)cccc3Cl)noc1C1CC1)C2` (centres unmarked) [Example 740], the Emax stood at 90% and the pEC50 is over 8.00.

For `CCOC(=O)c1ccccc1NC(=O)N1C2CCC1CC(OCc1c(-c3ccccc3OC(F)(F)F)noc1C1CC1)C2` (centres unmarked) [Example 743], the Emax came out at 140% and the pEC50 was under 6.00.

`O=C(O)c1ccccc1NC(=O)N1C2CCC1CC(OCc1c(-c3ccccc3OC(F)(F)F)noc1C1CC1)C2` (centres unmarked) [Example 744]: the Emax amounted to 165% and the pEC50 was under 6.00.

Turning to `COC(=O)c1ccc(NC(=O)N2C3CCC2CC(OCc2c(-c4ccccc4OC(F)(F)F)noc2C2CC2)C3)c(F)c1` (centres unmarked) [Example 745], the pEC50 is 6.00 to 7.00.

For `O=C(O)c1cccc(NC(=O)N2C3CCC2CC(OCc2c(-c4ccccc4OC(F)(F)F)noc2C2CC2)C3)c1F` (centres unmarked) [Example 746], the Emax was determined as 156% and the pEC50 is under 6.00.

Regarding `COC(=O)c1ccc(F)c(NC(=O)N2C3CCC2CC(OCc2c(-c4ccccc4OC(F)(F)F)noc2C2CC2)C3)c1` (centres unmarked) [Example 747], the Emax was 145% and the pEC50 is 6.00 to 7.00.

`O=C(O)c1ccc(F)c(NC(=O)N2C3CCC2CC(OCc2c(-c4ccccc4OC(F)(F)F)noc2C2CC2)C3)c1` (centres unmarked) [Example 748]: the Emax stood at 103% and the pEC50 was 7.00 to 8.00.

Consider `COC(=O)c1ccc(OC)c(NC(=O)N2C3CCC2CC(OCc2c(-c4ccccc4OC(F)(F)F)noc2C2CC2)C3)c1` (centres unmarked) [Example 749], for which the Emax came to 104% and the pEC50 was 7.00 to 8.00.

On to `COc1ccc(C(=O)O)cc1NC(=O)N1C2CCC1CC(OCc1c(-c3ccccc3OC(F)(F)F)noc1C1CC1)C2` (centres unmarked) [Example 750], for which the Emax was determined as 76% and the pEC50 is 6.00 to 7.00.

On to `COC(=O)c1cccc(OC)c1NC(=O)N1C2CCC1CC(OCc1c(-c3ccccc3OC(F)(F)F)noc1C1CC1)C2` (centres unmarked) [Example 751], for which the Emax amounted to 26% and the pEC50 was 6.00 to 7.00.

Take `CS(=O)(=O)NC(=O)c1ccc(NC(=O)N2C3CCC2CC(OCc2c(-c4ccccc4OC(F)(F)F)noc2C2CC2)C3)cc1` (centres unmarked) [Example 752]: the Emax came out at 239% and the pEC50 is under 6.00.

As to `CN(C)S(=O)(=O)NC(=O)c1ccc(NC(=O)N2C3CCC2CC(OCc2c(-c4ccccc4OC(F)(F)F)noc2C2CC2)C3)cc1` (centres unmarked) [Example 753], the Emax was 217% and the pEC50 is 7.00 to 8.00.

Take `CC(C)S(=O)(=O)NC(=O)c1ccc(NC(=O)N2C3CCC2CC(OCc2c(-c4ccccc4OC(F)(F)F)noc2C2CC2)C3)cc1` (centres unmarked) [Example 754]: the Emax came out at 236% and the pEC50 was 6.00 to 7.00.

In the case of `O=C(NS(=O)(=O)C1CC1)c1ccc(NC(=O)N2C3CCC2CC(OCc2c(-c4ccccc4OC(F)(F)F)noc2C2CC2)C3)cc1` (centres unmarked) [Example 755], the Emax amounted to 220% and the pEC50 is 6.00 to 7.00.

For the compound `O=C(NS(=O)(=O)c1ccccc1)c1ccc(NC(=O)N2C3CCC2CC(OCc2c(-c4ccccc4OC(F)(F)F)noc2C2CC2)C3)cc1` (centres unmarked) [Example 756], the Emax came out at 205% and the pEC50 is 6.00 to 7.00.

For the compound `CC(C)(C)c1ccc(S(=O)(=O)NC(=O)c2ccc(NC(=O)N3C4CCC3CC(OCc3c(-c5ccccc5OC(F)(F)F)noc3C3CC3)C4)cc2)cc1` (centres unmarked) [Example 757], the Emax came out at 257% and the pEC50 was 6.00 to 7.00.

As to `CC(C)S(=O)(=O)NC(=O)c1cccc(NC(=O)N2C3CCC2CC(OCc2c(-c4ccccc4OC(F)(F)F)noc2C2CC2)C3)c1` (centres unmarked) [Example 758], the Emax amounted to 233% and the pEC50 is 6.00 to 7.00.

Regarding `O=C(NS(=O)(=O)c1ccccc1)c1cccc(NC(=O)N2C3CCC2CC(OCc2c(-c4ccccc4OC(F)(F)F)noc2C2CC2)C3)c1` (centres unmarked) [Example 759], the Emax was 205% and the pEC50 was under 6.00.

Take `COc1c(NC(=O)N2C3CCC2CC(OCc2c(-c4ccccc4OC(F)(F)F)noc2C2CC2)C3)cccc1C(=O)OC(C)(C)C` (centres unmarked) [Example 760]: the Emax worked out at 180% and the pEC50 is under 6.00.

Regarding `COc1c(NC(=O)N2C3CCC2CC(OCc2c(-c4ccccc4OC(F)(F)F)noc2C2CC2)C3)cccc1C(=O)O` (centres unmarked) [Example 761], the Emax was determined as 105% and the pEC50 is under 6.00.

For the compound `COc1cccc(C(=O)O)c1NC(=O)N1C2CCC1CC(OCc1c(-c3ccccc3OC(F)(F)F)noc1C1CC1)C2` (centres unmarked) [Example 762], the Emax stood at 6% and the pEC50 was 6.00 to 7.00.

As for `COC(=O)c1cccc(F)c1NC(=O)N1C2CCC1CC(OCc1c(-c3ccccc3OC(F)(F)F)noc1C1CC1)C2` (centres unmarked) [Example 763], the Emax was found to be 211% and the pEC50 is 6.00 to 7.00.

For the compound `COC(=O)c1ccc(NC(=O)N2C3CCC2CC(OCc2c(-c4ccccc4OC(F)(F)F)noc2C2CC2)C3)nc1` (centres unmarked) [Example 764], the Emax was determined as 230% and the pEC50 is 6.00 to 7.00.

With `CCOC(=O)c1ccnc(NC(=O)N2C3CCC2CC(OCc2c(-c4ccccc4OC(F)(F)F)noc2C2CC2)C3)c1` (centres unmarked) [Example 765], the Emax turned out to be 272% and the negative logarithm of the EC50 (pEC50) was 7.00 to 8.00.

For `CCOC(=O)c1cccc(NC(=O)N2C3CCC2CC(OCc2c(-c4ccccc4OC(F)(F)F)noc2C2CC2)C3)n1` (centres unmarked) [Example 766], the Emax was determined as 192% and the pEC50 was under 6.00.

Turning to `CCOC(=O)c1cccnc1NC(=O)N1C2CCC1CC(OCc1c(-c3ccccc3OC(F)(F)F)noc1C1CC1)C2` (centres unmarked) [Example 767], the Emax worked out at 136% and the pEC50 was 6.00 to 7.00.

Consider `O=C(O)c1cccc(F)c1NC(=O)N1C2CCC1CC(OCc1c(-c3ccccc3OC(F)(F)F)noc1C1CC1)C2` (centres unmarked) [Example 768], for which the Emax turned out to be 33% and the pEC50 is under 6.00.

For the compound `O=C(O)c1ccc(NC(=O)N2C3CCC2CC(OCc2c(-c4ccccc4OC(F)(F)F)noc2C2CC2)C3)nc1` (centres unmarked) [Example 769], the Emax came out at 132% and the pEC50 is 6.00 to 7.00.

For the origin of these results see patent US10597391B2, “Urea-containing isoxazole derivatives as FXR agonists and methods of use thereof” (Enanta Pharmaceuticals, Inc., priority 2016, dated 2020).
